Active and inactive are the calls of the source. No cut-off for these calls is given here.
How the values were obtained:
[1] = Hemolytic activity against rabbit RBC incubated for 1 hr by multimode plate reader; assay type: toxicity, cell-based, Oryctolagus cuniculus, Erythrocyte; details: rabbit red blood cells (erythrocytes)
Staphylococcus aureus [2] = experiment: Antibacterial activity against Staphylococcus aureus ATCC29213 assessed as reduction in bacterial growth incubated for 22 to 24 hrs in presence of MgCl2 by CLSI based broth microdilution method; assay type: functional; details: time 22-24 hrs
Staphylococcus aureus [3] = experiment: Antibacterial activity against Staphylococcus aureus ATCC25923 assessed as reduction in microbial growth incubated for 22 to 24 hrs by CLSI based broth microdilution method; assay type: functional; details: time 22-24 hrs
Staphylococcus aureus [4] = experiment: Antibacterial activity against Staphylococcus aureus ATCC29213 assessed as reduction in bacterial growth incubated for 22 to 24 hrs in presence of FeCl3 by CLSI based broth microdilution method; assay type: functional; details: time 22-24 hrs
[5] = Cytotoxicity against mouse NCTC clone 929 cells assessed as viable cells at 50 ug/ml incubated for 24 hrs by CCK-8 assay relative to control; assay type: toxicity, cell-based; details: NCTC clone 929 (L929) cells, at 50 µg/mL, read-out: Activity
Klebsiella pneumoniae [6] = experiment: Synergistic […] activity against Klebsiella pneumoniae ATCC10031 assessed as fractional inhibitory concentration index incubated for 22 to 24 hrs in presence of gentamicin by CLSI based broth microdilution method; assay type: functional; details: time 22-24 hrs
Acinetobacter baumannii [7] = experiment: Antibacterial activity against Acinetobacter baumannii R28889 assessed as reduction in microbial growth incubated for 22 to 24 hrs by CLSI based broth microdilution method; assay type: functional; details: time 22-24 hrs
[8] = Cytotoxicity against HEK293 cells assessed as viable cells at 50 ug/ml incubated for 24 hrs by CCK-8 assay relative to control; assay type: toxicity, cell-based; details: human, at 50 µg/mL, read-out: Activity
Acinetobacter baumannii [9] = experiment: Synergistic […] activity against Acinetobacter baumannii ATCC17978 assessed as fractional inhibitory concentration index incubated for 22 to 24 hrs in presence of amikacin by CLSI based broth microdilution method; assay type: functional; details: time 22-24 hrs
Staphylococcus aureus [10] = experiment: Antibacterial activity against methicillin-resistant Staphylococcus aureus NCTC10442 assessed as reduction in bacterial growth incubated for 22 to 24 hrs in presence of FeCl2 by CLSI based broth microdilution method; assay type: functional; details: time 22-24 hrs
Staphylococcus aureus [11] = experiment: Synergistic […] activity against Staphylococcus aureus ATCC29213 assessed as fractional inhibitory concentration index incubated for 22 to 24 hrs in presence of tobramycin by CLSI based broth microdilution method; assay type: functional; details: time 22-24 hrs
Staphylococcus aureus [12] = experiment: Antibacterial activity against methicillin-resistant Staphylococcus aureus N315 assessed as reduction in microbial growth incubated for 22 to 24 hrs by CLSI based broth microdilution method; assay type: functional; details: time 22-24 hrs
Staphylococcus aureus [13] = experiment: Antibacterial activity against methicillin-resistant Staphylococcus aureus NCTC10442 assessed as reduction in bacterial growth incubated for 22 to 24 hrs in presence of NaCl by CLSI based broth microdilution method; assay type: functional; details: time 22-24 hrs
[14] = Cytotoxicity against mouse NCTC clone 929 cells assessed as viable cells at 6.25 ug/ml incubated for 24 hrs by CCK-8 assay relative to control; assay type: toxicity, cell-based; details: NCTC clone 929 (L929) cells, at 6.25 µg/mL, read-out: Activity
Staphylococcus aureus [15] = experiment: Antibacterial activity against Staphylococcus aureus ATCC29213 assessed as reduction in bacterial growth incubated for 22 to 24 hrs in presence of FeCl2 by CLSI based broth microdilution method; assay type: functional; details: time 22-24 hrs
Staphylococcus aureus [16] = experiment: Antibacterial activity against methicillin-resistant Staphylococcus aureus NCTC10442 assessed as reduction in microbial growth incubated for 22 to 24 hrs by CLSI based broth microdilution method; assay type: functional; details: time 22-24 hrs
Staphylococcus aureus [17] = experiment: Antibacterial activity against methicillin-resistant Staphylococcus aureus N315 assessed as reduction in bacterial growth incubated for 22 to 24 hrs in presence of NaCl by CLSI based broth microdilution method; assay type: functional; details: time 22-24 hrs
[18] = Cytotoxicity against mouse NCTC clone 929 cells assessed reduction in cell viability incubated for 24 hrs by CCK-8 assay; assay type: toxicity, cell-based; details: NCTC clone 929 (L929) cells
Staphylococcus aureus [19] = experiment: Antibacterial activity against Staphylococcus aureus ATCC29213 infected in C57BL6 mouse corneal infection model assessed as log reduction in CFU at 0.5 % administered topically on corneas for four times in 3 days by MHA plate counting method; assay type: functional; details: route top, time 3 day
Klebsiella pneumoniae [20] = experiment: Synergistic […] activity against Klebsiella pneumoniae ATCC10031 assessed as fractional inhibitory concentration index incubated for 22 to 24 hrs in presence of levofloxacin by CLSI based broth microdilution method; assay type: functional; details: time 22-24 hrs
Staphylococcus aureus [21] = experiment: Antibacterial activity against Staphylococcus aureus ATCC29213 infected in C57BL6 mouse corneal infection model assessed as bacterial killing at 0.5 % administered topically on corneas for four times in 3 days by MHA plate counting method relative to control; assay type: functional; details: route top, time 3 day
[22] = Cytotoxicity against mouse NCTC clone 929 cells assessed as viable cells at 100 ug/ml incubated for 24 hrs by CCK-8 assay relative to control; assay type: toxicity, cell-based; details: NCTC clone 929 (L929) cells, at 100 µg/mL, read-out: Activity
Staphylococcus aureus [23] = experiment: Antibacterial activity against methicillin-resistant Staphylococcus aureus N315 assessed as reduction in bacterial growth incubated for 22 to 24 hrs in presence of ZnSO4.7H2O by CLSI based broth microdilution method; assay type: functional; details: time 22-24 hrs
Staphylococcus aureus [24] = experiment: Synergistic […] activity against Staphylococcus aureus ATCC29213 assessed as fractional inhibitory concentration index incubated for 22 to 24 hrs in presence of linezolid by CLSI based broth microdilution method; assay type: functional; details: time 22-24 hrs
[25] = Cytotoxicity against HEK293 cells assessed as viable cells at 12.5 ug/ml incubated for 24 hrs by CCK-8 assay relative to control; assay type: toxicity, cell-based; details: human, at 12.5 µg/mL, read-out: Activity
Staphylococcus aureus [26] = experiment: Antibacterial activity against methicillin-resistant Staphylococcus aureus NCTC10442 assessed as reduction in bacterial growth incubated for 22 to 24 hrs in presence of ZnSO4.7H2O by CLSI based broth microdilution method; assay type: functional; details: time 22-24 hrs
Staphylococcus aureus [27] = experiment: Synergistic […] activity against methicillin-resistant Staphylococcus aureus NCTC10442 assessed as fractional inhibitory concentration index incubated for 22 to 24 hrs in presence of vancomycin by CLSI based broth microdilution method; assay type: functional; details: time 22-24 hrs
Staphylococcus aureus [28] = experiment: Synergistic […] activity against Staphylococcus aureus ATCC29213 assessed as fractional inhibitory concentration index incubated for 22 to 24 hrs in presence of vancomycin by CLSI based broth microdilution method; assay type: functional; details: time 22-24 hrs
Staphylococcus aureus [29] = experiment: Antibacterial activity against methicillin-resistant Staphylococcus aureus N315 assessed as reduction in bacterial growth incubated for 22 to 24 hrs in presence of CaCl2 by CLSI based broth microdilution method; assay type: functional; details: time 22-24 hrs
[30] = tested on: Staphylococcus epidermidis; experiment: Antibacterial activity against Staphylococcus epidermidis CMCC26069 assessed as reduction in microbial growth incubated for 22 to 24 hrs by CLSI based broth microdilution method; assay type: functional; details: time 22-24 hrs
Staphylococcus aureus [31] = experiment: Antibacterial activity against methicillin-resistant Staphylococcus aureus N315 assessed as reduction in bacterial growth incubated for 22 to 24 hrs in presence of FeCl3 by CLSI based broth microdilution method; assay type: functional; details: time 22-24 hrs
Staphylococcus aureus [32] = experiment: Bactericidal activity against methicillin-resistant Staphylococcus aureus NCTC10442 assessed as cell killing at 4 to 8 times of MIC measured up to 24 hrs by time kill assay; assay type: functional, organism-based
[33] = Cytotoxicity against HEK293 cells assessed as viable cells at 25 ug/ml incubated for 24 hrs by CCK-8 assay relative to control; assay type: toxicity, cell-based; details: human, at 25 µg/mL, read-out: Activity

With `COC(=O)[C@H](CCCNC(=N)N)NC(=O)[C@H](CCCNC(=N)N)NC(=O)COc1ccc(S(=O)(=O)c2ccc(OC/C=C(/C)CCC=C(C)C)cc2)cc1` the HC50 at 1 h [1] was > 200 µg/mL, the MIC (Staphylococcus aureus [2]) was 1.56 µg/mL and the MIC (Staphylococcus aureus [3]) was 3.12 µg/mL. The MIC (Staphylococcus aureus [4]) was 1.56 µg/mL, the viability at 24 h, 50 ug/ml [5] was 84.7% and the “fractional inhibitory concentration index (FICI)” value (Klebsiella pneumoniae [6]) was 0.5. For the same molecule, the MIC (Acinetobacter baumannii [7]) was 6.25 µg/mL, the viability at 24 h, 50 ug/ml [8] was 91.5% and the “fractional inhibitory concentration index (FICI)” value (Acinetobacter baumannii [9]) was 0.28. For the same molecule, the MIC (Staphylococcus aureus [10]) was 1.56 µg/mL, the “fractional inhibitory concentration index (FICI)” value (Staphylococcus aureus [11]) was 0.38 and the MIC (Staphylococcus aureus [12]) was 0.78 µg/mL. It also gave an MIC (Staphylococcus aureus [13]) of 1.56 µg/mL, a viability at 24 h, 6.25 ug/ml [14] of 91.5% and an MIC (Staphylococcus aureus [15]) of 1.56 µg/mL. For the same molecule, the MIC (Staphylococcus aureus [16]) was 0.78 µg/mL, the MIC (Staphylococcus aureus [17]) was 1.56 µg/mL and the CC50 at 24 h [18] was > 100 µg/mL. For the same molecule, the “log(activity)” value (Staphylococcus aureus [19]) was 6.9, the “fractional inhibitory concentration index (FICI)” value (Klebsiella pneumoniae [20]) was 0.56 and the Activity (Staphylococcus aureus [21]) was 99.99%. For the same molecule, the viability at 24 h, 100 ug/ml [22] was 74%, the MIC (Staphylococcus aureus [23]) was 1.56 µg/mL and the “fractional inhibitory concentration index (FICI)” value (Staphylococcus aureus [24]) was 0.28. For the same molecule, the viability at 24 h, 12.5 ug/ml [25] was 94.2%, the MIC (Staphylococcus aureus [26]) was 1.56 µg/mL and the “fractional inhibitory concentration index (FICI)” value (Staphylococcus aureus [27]) was 0.5. For the same molecule, the “fractional inhibitory concentration index (FICI)” value (Staphylococcus aureus [28]) was 0.5, the MIC (Staphylococcus aureus [29]) was 3.12 µg/mL and the MIC [30] was 1.56 µg/mL. For the same molecule, the MIC (Staphylococcus aureus [31]) was 1.56 µg/mL, the Activity (Staphylococcus aureus [32]) was “Active” and the viability at 24 h, 25 ug/ml [33] was 93.8%.

— ChEMBL document CHEMBL5584236, “Development of novel bisphenol derivatives with a membrane-targeting mechanism as potent gram-positive antibacterial agents” (Eur J Med Chem, 2024)
